Data as given in the supplement of paper PMC10307832.

Experiments:
Experiment in all cases: relative viability (nuclei count vs DMSO), 5 days (fraction); higher = more cells survive
[1] = compound: CCC1=CN=CN=C1N2CCN(CC2)CC3=NC4=C(N3)C=C(C=C4)C(F)(F)F + CC(=O)c1c(C)c2cnc(Nc3ccc(N4CCNCC4)cn3)nc2n(C2CCCC2)c1=O [Palbociclib] (partner 0.5 µM)
Outline: (§1)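 For relative viability, nuclei counts in treated wells were divided by those in vehicle wells. Lung cancer cell lines had been pin-tool dosed in 1536-well plates the day after seeding and cultured for 5 days, then fixed and stained in one step (final 0.05% Triton X-100, 1% formaldehyde, 1 ug/ml Hoechst) and imaged at 4×. Doses were one drug alone or a fixed anchor-drug dose plus five library-drug doses (not always all listed) in √10 steps, and values are duplicate-plate medians.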

[2] = compound: CCn1c(-c2nonc2N)nc2cnc(Oc3cccc(NC(=O)c4ccc(OCCN5CCOCC5)cc4)c3)cc21 + Cc1nc(NC(=O)N2CCC[C@H]2C(N)=O)sc1-c1ccnc(C(C)(C)C(F)(F)F)c1 [Alpelisib] (partner 2 µM)
Outline: as §1

Mirin + Luminespib = compound: N=C1NC(=O)/C(=C/c2ccc(O)cc2)S1 [Mirin] + CCNC(=O)c1noc(-c2cc(C(C)C)c(O)cc2O)c1-c1ccc(CN2CCOCC2)cc1 [Luminespib] (partner 0.01 µM)
Outline: as §1

[3] = compound: CCn1c(-c2nonc2N)nc2cnc(Oc3cccc(NC(=O)c4ccc(OCCN5CCOCC5)cc4)c3)cc21 + CC(=O)Nc1cccc(-n2c(=O)n(C3CC3)c(=O)c3c(Nc4ccc(I)cc4F)n(C)c(=O)c(C)c32)c1 [Trametinib] (partner 0.02 µM)
Outline: as §1

Row | Cell Line | relative viability ([1]; first compound 0.04 µM) | relative viability ([1]; first compound 0.1265 µM) | relative viability ([1]; first compound 0.4 µM) | relative viability ([1]; first compound 1.265 µM) | relative viability ([1]; first compound 4 µM) | relative viability ([2]; first compound 0.04 µM) | relative viability ([2]; first compound 0.1265 µM) | relative viability ([2]; first compound 0.4 µM) | relative viability ([2]; first compound 1.265 µM) | relative viability ([2]; first compound 4 µM) | relative viability (Mirin + Luminespib; first compound 0.25 µM) | relative viability (Mirin + Luminespib; first compound 2.5 µM) | relative viability (Mirin + Luminespib; first compound 7.906 µM) | relative viability (Mirin + Luminespib; first compound 25 µM) | relative viability ([3]; first compound 0.04 µM) | relative viability ([3]; first compound 0.1265 µM) | relative viability ([3]; first compound 0.4 µM) | relative viability ([3]; first compound 1.265 µM) | relative viability ([3]; first compound 4 µM) | relative viability (Mirin + Luminespib; first compound 0.7906 µM)
1 | LK-2 | 0.685 | 0.469 | 0.752 | 0.381 | 0.594 | 1.39 | 1.2 | 1.1 | 0.282 | 0.512 | 0.148 | 0.19 | 0.153 | 0.133 | 0.753 | 0.969 | 0.65 | 0.666 | 0.899 | –
2 | NCI-H441 | 0.205 | 0.204 | 0.204 | 0.17 | 0.257 | 0.688 | 0.834 | 0.68 | 0.599 | 0.44 | 0.377 | 0.343 | 0.269 | 0.282 | 0.466 | 0.43 | 0.289 | 0.38 | 0.477 | 0.321
3 | NCI-H727 | 0.688 | 0.644 | 0.526 | 0.576 | 0.661 | 0.745 | 0.833 | 0.751 | 0.84 | 0.713 | 0.515 | 0.453 | 0.265 | 0.316 | – | 0.392 | 0.386 | 0.461 | 0.423 | 0.307
